One may read the IC50 as the concentration that gives 50% inhibition. A high value points to weaker potency.

17 molecules from ChEMBL document CHEMBL4261623, “Synthesis, computational studies and antiproliferative activities of coumarin-tagged 1,3,4-oxadiazole conjugates against MDA-MB-231 and MCF-7 human breast cancer cells” (Bioorg Med Chem, 2018) can be followed below.

The structures appear in SMILES notation.

Test [1] has as its system MCF7. The experiment in a line: Antiproliferative activity against human MCF7 cells after 24 hrs by MTT assay. It is filed as functional, cell-based. The conditions noted are these: MCF7, 24 h. For orientation: Tetrazolium dyes change colour on reduction, which living cells bring about.
Test [2] relates to MDA-MB-231. Description: Antiproliferative activity against human MDA-MB-231 cells after 24 hrs by MTT assay. It is filed as functional, cell-based. To be noted: MDA-MB-231, 24 h.
The test system of test [3] is MCF7. The experiment in a line: Potency index, ratio of tamoxifen IC50 to compound IC50 for antiproliferative activity against human MCF7 cells. It is filed as functional.
Test [4] has as its system MDA-MB-231. Description: Potency index, ratio of tamoxifen IC50 to compound IC50 for antiproliferative activity against human MDA-MB-231 cells. It is filed as functional.

Consider `CSc1nnc(COc2cc(C)c3c(C)cc(=O)oc3c2)o1`, for which the IC50 in the test with MCF7 [1] and with MDA-MB-231 [2] was above 100 µM each time.

Consider `CCCCCCSc1nnc(COc2cc(C)c3c(C)cc(=O)oc3c2)o1`, for which the IC50 in the test on MCF7 [1] and in the test with MDA-MB-231 [2] was above 100 µM in each case.

`Cc1cc(OCc2nnc(S(=O)(=O)Cc3ccc(F)c(F)c3)o2)cc2oc(=O)cc(C)c12`: the figures for the IC50 in the test on MCF7 [1] and in the test with MDA-MB-231 [2] were 55.2 µM and 31.6 µM, respectively.

Regarding `Cc1cc(OCc2nnc(SCc3ccc(Cl)cc3Cl)o2)cc2oc(=O)cc(C)c12`, the IC50 was below 5 µM in the test with MCF7 [1] and above 100 µM in the test with MDA-MB-231 [2]. For the same molecule, in the test on MCF7 [3], the “Ratio IC50” value is listed as 1.4.

For `CCCCCCS(=O)(=O)c1nnc(COc2cc(C)c3c(C)cc(=O)oc3c2)o1`, the IC50 in the test on MCF7 [1] and with MDA-MB-231 [2] was above 100 µM each time.

For `Cc1cc(OCc2nnc(SCc3cccc(F)c3)o2)cc2oc(=O)cc(C)c12`, the values for the IC50 with MCF7 [1] and with MDA-MB-231 [2] were 26 µM and above 100 µM, respectively.

As for `Cc1cc(OCc2nnc(S(=O)(=O)Cc3cccc(F)c3)o2)cc2oc(=O)cc(C)c12`, the IC50 with MCF7 [1] is 70.4 µM; in the test with MDA-MB-231 [2], 21.3 µM.

As for `CCSc1nnc(COc2cc(C)c3c(C)cc(=O)oc3c2)o1`, the IC50 in the test on MCF7 [1] and with MDA-MB-231 [2] was above 100 µM in each case.

Consider `CCCCSc1nnc(COc2cc(C)c3c(C)cc(=O)oc3c2)o1`, for which the IC50 in the test with MCF7 [1] and in the test on MDA-MB-231 [2] was above 100 µM each time.

As for `Cc1cc(OCc2nnc(SCc3ccccc3)o2)cc2oc(=O)cc(C)c12`, the IC50 in the test on MCF7 [1] and in the test with MDA-MB-231 [2] was above 100 µM each time.

As for `CCS(=O)(=O)c1nnc(COc2cc(C)c3c(C)cc(=O)oc3c2)o1`, the IC50 in the test with MCF7 [1] and in the test with MDA-MB-231 [2] was above 100 µM each time.

Turning to `CCCS(=O)(=O)c1nnc(COc2cc(C)c3c(C)cc(=O)oc3c2)o1`, the figures for the IC50 with MCF7 [1] and with MDA-MB-231 [2] were above 100 µM and 7.07 µM, respectively. In addition, in the test on MDA-MB-231 [4], the “Ratio IC50” value is on record as 7.

`Cc1cc(OCc2nnc(SCc3ccc(F)c(F)c3)o2)cc2oc(=O)cc(C)c12`: the half-maximal inhibitory concentration (IC50) in the test on MCF7 [1] is 33.3 µM; in the test with MDA-MB-231 [2], above 100 µM.

As for `Cc1cc(OCc2nnc(S(=O)(=O)Cc3ccccc3)o2)cc2oc(=O)cc(C)c12`, the figures for the IC50 in the test with MCF7 [1] and with MDA-MB-231 [2] were 38.6 µM and 7.07 µM, respectively. For the same molecule, the “Ratio IC50” value with MDA-MB-231 [4] stood at 7.

Consider `CCCSc1nnc(COc2cc(C)c3c(C)cc(=O)oc3c2)o1`, for which the IC50 in the test with MCF7 [1] and with MDA-MB-231 [2] was above 100 µM each time.

As for `CCCCCSc1nnc(COc2cc(C)c3c(C)cc(=O)oc3c2)o1`, the IC50 in the test with MCF7 [1] and in the test with MDA-MB-231 [2] was above 100 µM each time.

With `CC/C(=C(\c1ccccc1)c1ccc(OCCN(C)C)cc1)c1ccccc1` [TAMOXIFEN], the values for the IC50 in the test with MCF7 [1] and in the test with MDA-MB-231 [2] were 7.09 µM and 47.1 µM, respectively.
